Measurements published in patent US10556865B2, “Synergistic herbicidal composition containing certain pyridine or pyrimidine carboxylic acids and certain cereal and rice herbicides” (Dow AgroSciences, LLC, priority 2007, dated 2020).
Values joined by “and” are separate entries in the source; they are usually repeats but may differ in a detail not shown here. Equal entries are not always repeated.

Experiments:
Type in all cases: in vivo
[1] = tested on: Cyperus esculentus L. (CYPES); assay: Postemergence herbicidal mixtures for weed control in direct seeded rice (greenhouse, visual % injury); conditions: CYPES
[2] = tested on: Fimbristylis miliacea (L.) VAHL (FIMMI); assay: as above; conditions: for % Injury Ob: FIMMI
Cyperus species (CYPSS) = assay: Herbicidal mixtures for weed control in transplanted paddy rice (in-water application, visual % injury); conditions: CYPES = Cyperus esculentus
Procedure: (§1) Weed seeds or nutlets of the desired test plant species were planted in puddled soil (mud) prepared by mixing a non-sterilized mineral soil (28 percent silt, 18 percent clay, and 54 percent sand, with a pH of about 7.3 to 7.8 and an organic matter content of about 1.0 percent) and water at a ratio of 100 kilograms (kg) of soil to 19 L of water. The prepared mud was dispensed in 250 mL aliquots into 480 mL non-perforated plastic pots with a surface area of 91.6 square centimeters leaving a headspace of 3 centimeters in each pot. Rice seeds were planted in Sun Gro MetroMix® 306 planting mixture, which typically has a pH of 6.0 to 6.8 and an organic matter content of about 30 percent, in plastic plug trays. Seedlings at the second or third leaf stage of growth were transplanted into 650 mL of mud contained in 960 mL non-perforated plastic pots with a surface area of 91.6 cm^2 4 days prior to herbicide application. The paddy was created by filling the 3 centimeter headspace of the pots with water. When required to ensure good germination and healthy plants, a fungicide treatment and/or other chemical or physical treatment was applied. The plants were grown for 4-14 days in a greenhouse with an approximate 14 hr photoperiod which was maintained at about 29° C. during the day and 26° C. during the night. Nutrients were added as Osmocote (17:6:10, N:P:K+minor nutrients) at 2 g per cup. Water was added on a regular basis to maintain the paddy flood, and supplemental lighting was provided with overhead metal halide 1000-Watt lamps as necessary. The plants were employed for testing when they reached the second or third true leaf stage.
(§2) Treatments consisted of esters or salts of compound A, compound C, or compound D and various herbicidal components alone and in combination. For technical grade compounds, a weighed amount, determined by the highest rate to be tested, was placed in an individual 120 mL glass vial and was dissolved in 20 mL of acetone to obtain concentrated stock solutions. […] The concentrated stock solutions obtained were diluted with 20 mL of an aqueous mixture containing 2.5% Agri-dex crop oil concentrate (v/v). For formulated compounds, a measured amount, determined by the highest rate to be tested, was placed in an individual 120 mL glass vial and was dissolved in 20 mL of 2.5% (v/v) Agri-dex crop oil concentrate to obtain concentrated stock solutions. The concentrated stock solutions obtained were diluted with 20 mL of acetone. Applications were made by injecting an appropriate amount of the stock solution into the aqueous layer of the paddy. Control plants were treated in the same manner with the solvent blank. All treated plant material received the same concentration of acetone and crop oil concentrate.
(§3) Forms of compounds A, C, and D were applied on an acid equivalent basis. Other herbicidal components were applied on an active ingredient basis and included acetolactate synthase (ALS)-inhibiting herbicides penoxsulam (triazolopyrimidine chemical class) applied as Grasp SC, […] (sulfonylurea chemical class) applied as Sirius G, and bensulfuron-methyl (sulfonylurea chemical class) applied as Londax; acetyl CoA carboxylase (ACCase) inhibiting herbicides cyhalofop-butyl applied as Clincher G and fenoxaprop-p-ethyl applied as Ricestar HT; auxinic herbicide quinclorac applied as Facet 75 DF; phytoene desaturase inhibiting herbicide norflurazon; and p-hydroxyphenylpyruvate dioxygenase (HPPD) inhibiting herbicide sulcotrione applied as Mikado.
(§4) The treated plants and control plants were placed in a greenhouse as described above and water was added as needed to maintain a paddy flood. After 3 weeks the condition of the test plants as compared with that of the untreated plants was determined visually and scored on a scale of 0 to 100 percent where 0 corresponds to no injury and 100 corresponds to complete kill.

Cyperus iria L. (CYPIR) = assay: Postemergence herbicidal mixtures for weed control in direct seeded rice (greenhouse, visual % injury); conditions: CYPIR
[3] = tested on: Scirpus maritimus L. (SCPMA); assay: as above; conditions: for % Injury Ob: SCPMA
[4] = tested on: Brachiaria platyphylla (BRISEB.) NASH (BRAPP); assay: as above
[5] = tested on: Canada thistle (Cirsium arvense L; CIRAR); assay: Postemergence herbicidal activity of mixtures in cereal crops (greenhouse, visual injury); conditions: 3.75 g/ha
Procedure, shortened: (§5)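 Weeds grown in greenhouse (~14 h photoperiod, ~18/17 °C day/night) to second–third true leaf stage, sprayed postemergence with compound and second cereal herbicide alone or combined; solvent-blank controls. Injury scored visually after 20-22 days, 0–100% (complete kill); expected mixture activity = A+B−(A×B/100).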

[6] = tested on: wild oats (Avena fatua L; AVEFA); assay: as above; conditions: 2.5 g/ha, Table 14
Procedure: (§6) Seeds of the desired test plant species were planted in Sun Gro MetroMix® 306 planting mixture, which typically has a pH of 6.0 to 6.8 and an organic matter content of about 30 percent, in plastic pots with a surface area of 103.2 square centimeters (cm^2). […] The plants were grown for 7-36 days in a greenhouse with an approximate 14 hour photoperiod which was maintained at about 18° C. during the day and 17° C. during the night. Nutrients and water were added on a regular basis and supplemental lighting was provided with overhead metal halide 1000-Watt lamps as necessary. The plants were employed for testing when they reached the second or third true leaf stage.
(§7) Treatments consisted of compound (as listed in Tables 1 through 64) and a second cereal herbicide alone and in combination. […] The concentrated stock solutions were diluted to 1.5 mg ai/mL with the addition of 2 volumes of an aqueous mixture containing acetone, water, isopropyl alcohol, DMSO, Agri-dex crop oil concentrate, and Triton® X-77 surfactant in a 64.7:26.0:6.7:2.0:0.7:0.01 v/v ratio. A dilution solution was prepared by mixing 1 volume of 97:3 v/v acetone/DMSO and 2 volumes of an aqueous mixture containing acetone, water, isopropyl alcohol, DMSO, Agri-dex crop oil concentrate, and Triton® X-77 surfactant in a 64.7:26.0:6.7:2.0:0.7:0.01 v/v ratio. Compound requirements are based upon a 12 mL application volume at a rate of 187 liters per hectare (L/ha). […] Formulated compounds were applied to the plant material with an overhead Mandel track sprayer equipped with 8002E nozzles calibrated to deliver 187 L/ha over an application area of 0.503 square meters (m^2) at a spray height of 18 inches […] above average plant canopy. Control plants were sprayed in the same manner with the solvent blank.
as §4, with “watered by sub-irrigation” for “water was added as needed”, “prevent wash-off of the test compounds.” for “maintain a paddy flood.”, “20-22 days,” for “3 weeks”, “control” for “untreated”
(§8) Colby's equation was used to determine the herbicidal effects expected from the mixtures (Colby, S. R. 1967. Calculation of the synergistic and antagonistic response of herbicide combinations. Weeds 15:20-22.).
(§9) The following equation was used to calculate the expected activity of mixtures containing two active ingredients, A and B: Expected=A+B−(A×B/100)

[7] = tested on: windgrass (Apera spica-venti L; APESV); assay: as above; conditions: Apera spica-venti, post-emergence, 2.5 g/ha, Table 14; read-out: APESV Ob
Procedure: as §6, §7
as §4, with “watered by sub-irrigation” for “water was added as needed”, “prevent wash-off of the test compounds.” for “maintain a paddy flood.”, “20-22 days,” for “3 weeks”, “control” for “untreated”
as §8, §9

[8] = tested on: blackgrass (Alopecurus myosuroides L; ALOMY); assay: Postemergence herbicidal activity of mixtures in cereal crops (greenhouse, visual injury 0-100 percent after 20-22 days); conditions: 2.5 g/ha
Procedure: as §6, §7
as §4, with “watered by sub-irrigation” for “water was added as needed”, “prevent wash-off of the test compounds.” for “maintain a paddy flood.”, “20-22 days,” for “3 weeks”, “control” for “untreated”
as §8, §9

[9] = tested on: Italian ryegrass (Lolium multiflorum L; LOLMU); assay: Postemergence herbicidal activity of mixtures in cereal crops (greenhouse, visual injury); conditions: 2.5 g/ha, Table 14
Procedure, shortened: (§10)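 Greenhouse postemergence; 2–3 true leaves; ~14 h light, ~18/17 °C. Cpd A or B (Me ester, TEA, K salt) ± 2nd cereal herbicide, solo and 2-/3-way mixes, 187 L/ha in acetone/DMSO-based carrier with crop oil concentrate and Triton X-77. Subirrigated; % injury at 20–22 d. Colby expected.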

[10] = tested on: green foxtail (Setaria viridis L; SETVI); assay: as above; conditions: 2.5 g/ha, Table 7
Procedure, shortened: as §10

[11] = tested on: Polygonum pensylvanicum L. (POLPY); assay: Postemergence herbicidal mixtures for weed control in direct seeded rice (greenhouse, visual % injury); conditions: for % Injury Ob: POLPY
[12] = tested on: Ischaemum rugosum SALISB. (ISCRU); assay: as above; conditions: ISCRU
Scirpus species (SCPSS) = assay: Herbicidal mixtures for weed control in transplanted paddy rice (in-water application, visual % injury); conditions: SCPJU; 35 g/ha alone
Procedure: as §1, with “When required to ensure good germination and healthy plants, a fungicide treatment and/or other chemical or physical treatment was applied.” left out
as §2, §3, §4

[13] = tested on: Fimbristylis miliacea (L.) VAHL (FIMMI); assay: as above; conditions: 35 g/ha alone
Procedure: as §1, with “When required to ensure good germination and healthy plants, a fungicide treatment and/or other chemical or physical treatment was applied.” left out
as §2, §3, §4

[14] = tested on: wild pansy (Viola tricolor L; VIOTR); assay: Postemergence herbicidal activity of mixtures in cereal crops (greenhouse, visual injury); conditions: 70 g/ha alone
Procedure, shortened: as §5

[15] = tested on: bird's-eye speedwell (Veronica persica L; VERPE); assay: as above; conditions: 70 g/ha alone
Procedure, shortened: as §5

[16] = tested on: wild buckwheat (Polygonum convolvulus L; POLCO); assay: as above; conditions: 70 g/ha alone
Procedure, shortened: as §10

[17] = tested on: lady's-thumb (Polygonum persicaria L; POLPE); assay: as above; conditions: 70 g/ha alone
Procedure, shortened: as §10

[18] = tested on: chickweed (Stellaria media L; STEME); assay: as above; conditions: 70 g/ha alone
Procedure, shortened: as §10

In the case of `CNc1cnn(-c2cccc(C(F)(F)F)c2)c(=O)c1Cl` [Norflurazon], the “% Injury Ob” value ([1]; 560 g/ha alone) is reported as 0%, the “% Injury Ob” value ([2]; 560 g/ha alone) is reported as 0% and the “% Injury CYPES Ob” value (Cyperus species (CYPSS); Norflurazon 70 g/ha alone (Compound A Methyl half)) is reported as 0%. The “% Injury CYPES Ob” value (Cyperus species (CYPSS); Norflurazon 70 g/ha alone (Compound A TEA half)) was 0%, the “% Injury Ob” value (Cyperus iria L. (CYPIR); 560 g/ha alone) was 0% and the “% Injury Ob” value ([3]; 560 g/ha alone) was 60%. The “% Injury Ob” value ([4]; 70 g/ha alone) was 0%.

For `COc1nc(C)nc(NC(=O)NS(=O)(=O)c2cc(I)ccc2C(=O)O)n1` [Iodosulfuron, 4-iodo-2-[[[[(4-methoxy-6-methyl-1,3,5-triazin-2-yl)amino]carbonyl]amino]sulfonyl]benzoic acid, reference compound], the “CIRAR Ob” value [5] was 50%, the “AVEFA Ob” value [6] was 35% and the pest or weed control at 2.5 g/ha [7] was 68%. For the same compound, the “ALOMY Ob” value ([8]; Table 7) was 50%, the “ALOMY Ob” value ([8]; Table 14) was 50% and the “LOLMU Ob” value [9] was 53%. For the same compound, the “SETVI Ob” value [10] was 0%.

With `C=CCOC(=O)c1nc(-c2ccc(Cl)c(OC)c2F)cc(N)c1Cl` [Compound A Allyl] the “% Injury Ob” value ([1]; 17.5 g/ha alone) was 50%, the “% Injury Ob” value ([1]; 35 g/ha alone) was 95% and the “% Injury Ob” value ([2]; 8.75 g/ha alone) was 0%. The “% Injury Ob” value ([2]; 35 g/ha alone) was 60%, the “% Injury FIMMI Ob” value ([2]; alone 17.5 g/ha) was 40% and the “% Injury Ob” value ([11]; 17.5 g/ha alone) was 90%. The “% Injury Ob” value ([11]; 35 g/ha alone) was 70%, the “% Injury POLPY Ob” value ([11]; alone 17.5 g/ha) was 70% and the “% Injury Ob” value ([12]; 8.75 g/ha alone) was 10%. For the same compound, the “% Injury Ob” value ([12]; 17.5 g/ha alone) was 40%, the “% Injury Ob” value (Cyperus iria L. (CYPIR); 17.5 g/ha alone) was 35% and the “% Injury Ob” value (Cyperus iria L. (CYPIR); 35 g/ha alone) was 85%. For the same compound, the “% Injury Ob” value ([3]; 17.5 g/ha alone) was 10%, the “% Injury Ob” value ([3]; 35 g/ha alone) was 20% and the “% Injury SCPMA Ob” value ([3]; alone 17.5 g/ha) was 0%. For the same compound, the “% Injury Ob” value ([4]; 4.38 g/ha alone) was 80%, the “% Injury Ob” value ([4]; 8.75 g/ha alone) was 60% and 80% and 100% and the “% Injury Ob” value ([4]; 17.5 g/ha alone) was 99%.

In the case of `CCOC(=O)[C@@H](C)Oc1ccc(Oc2nc3ccc(Cl)cc3o2)cc1` [Fenoxaprop-p-ethyl], the “% Injury FIMMI Ob” value ([2]; alone 35 g/ha) is reported as 0%, the “% Injury Ob” value (Scirpus species (SCPSS)) is reported as 0% and the “% Injury Ob” value [13] is reported as 0%. For the same compound, the “% Injury POLPY Ob” value ([11]; alone 35 g/ha) was 0% and the “% Injury SCPMA Ob” value ([3]; alone 35 g/ha) was 0%.

In the case of `CCCCC(CC)COC(=O)COc1ccc(Cl)cc1C` (stereo not drawn) [MCPA EHE], the “% Injury Ob” value ([2]; 70 g/ha alone) is reported as 0%, the “% Injury Ob” value ([2]; 140 g/ha alone) is reported as 0% and the “% Injury Ob” value ([12]; 70 g/ha alone) is reported as 0%. For the same compound, the “% Injury Ob” value ([12]; 140 g/ha alone) was 0%, the “% Injury Ob” value ([4]; 70 g/ha alone) was 0% and the “% Injury Ob” value ([4]; 140 g/ha alone) was 0%.

For `Cc1cc(Cl)ccc1OCC(=O)O` [MCPA], the “VIOTR Ob” value [14] was 17%, the “VERPE Ob” value [15] was 10% and the “POLCO Ob” value [16] was 7%. For the same compound, the “POLPE Ob” value [17] was 23% and the “STEME Ob” value [18] was 7%.
